Data published in the NIST ThermoML archive (doi:10.1007/s10765-013-1469-0).

Experiment: xn = mol fraction of the nth substance listed
Conditions: 101 kPa, Liquid; for viscosity: Concentric cylinders viscometry; for mass density: Vibrating tube method

COCCOCCOCCOCCOC [2,5,8,11,14-pentaoxapentadecane] + CCCCO
Conditions	mass density [kg/m3]	viscosity [mPa·s]
288.15 K, x2 = 0	1015.63	4.341
288.15 K, x2 = 0.1013	1006.51	4.077
288.15 K, x2 = 0.2236	993.986	3.779
288.15 K, x2 = 0.3036	984.642	3.567
288.15 K, x2 = 0.4131	969.983	3.317
288.15 K, x2 = 0.5065	955.349	3.129
288.15 K, x2 = 0.5996	938.288	2.945
288.15 K, x2 = 0.7007	916.154	2.795
288.15 K, x2 = 0.7991	889.873	2.74
288.15 K, x2 = 0.8996	856.379	2.875
293.15 K, x2 = 0	1011	3.834
293.15 K, x2 = 0.1013	1001.91	3.591
293.15 K, x2 = 0.2236	989.415	3.315
293.15 K, x2 = 0.3036	980.1	3.139
293.15 K, x2 = 0.4131	965.493	2.922
293.15 K, x2 = 0.5065	950.916	2.77
293.15 K, x2 = 0.5996	933.921	2.603
293.15 K, x2 = 0.7007	911.881	2.474
293.15 K, x2 = 0.7991	885.715	2.428
293.15 K, x2 = 0.8996	852.384	2.546
298.15 K, x2 = 0	1006.36	3.38
298.15 K, x2 = 0.1013	997.307	3.152
298.15 K, x2 = 0.2236	984.881	2.93
298.15 K, x2 = 0.3036	975.56	2.783
298.15 K, x2 = 0.4131	960.897	2.599
298.15 K, x2 = 0.5065	946.305	2.462
298.15 K, x2 = 0.5996	929.548	2.321
298.15 K, x2 = 0.7007	907.599	2.206
298.15 K, x2 = 0.7991	881.548	2.165
298.15 K, x2 = 0.8996	848.369	2.263
303.15 K, x2 = 0	1001.73	3.004
303.15 K, x2 = 0.1013	992.702	2.814
303.15 K, x2 = 0.2236	980.276	2.62
303.15 K, x2 = 0.3036	971.014	2.488
303.15 K, x2 = 0.4131	956.499	2.328
303.15 K, x2 = 0.5065	942.026	2.208
303.15 K, x2 = 0.5996	925.164	2.087
303.15 K, x2 = 0.7007	903.304	1.987
303.15 K, x2 = 0.7991	877.365	1.945
303.15 K, x2 = 0.8996	844.334	2.015
308.15 K, x2 = 0	997.104	2.691
308.15 K, x2 = 0.1013	988.097	2.525
308.15 K, x2 = 0.2236	975.701	2.357
308.15 K, x2 = 0.3036	966.466	2.241
308.15 K, x2 = 0.4131	951.994	2.1
308.15 K, x2 = 0.5065	937.569	1.991
308.15 K, x2 = 0.5996	920.77	1.885
308.15 K, x2 = 0.7007	898.993	1.796
308.15 K, x2 = 0.7991	873.162	1.757
308.15 K, x2 = 0.8996	840.275	1.807
313.15 K, x2 = 0	992.481	2.426
313.15 K, x2 = 0.1013	983.495	2.278
313.15 K, x2 = 0.2236	971.126	2.134
313.15 K, x2 = 0.3036	961.914	2.034
313.15 K, x2 = 0.4131	947.487	1.905
313.15 K, x2 = 0.5065	933.108	1.812
313.15 K, x2 = 0.5996	916.363	1.712
313.15 K, x2 = 0.7007	894.665	1.631
313.15 K, x2 = 0.7991	868.935	1.592
313.15 K, x2 = 0.8996	836.188	1.628
318.15 K, x2 = 0	987.859	2.199
318.15 K, x2 = 0.1013	978.879	2.074
318.15 K, x2 = 0.2236	966.542	1.942
318.15 K, x2 = 0.3036	957.357	1.853
318.15 K, x2 = 0.4131	942.969	1.738
318.15 K, x2 = 0.5065	928.631	1.653
318.15 K, x2 = 0.5996	911.939	1.562
318.15 K, x2 = 0.7007	890.317	1.488
318.15 K, x2 = 0.7991	864.686	1.45
318.15 K, x2 = 0.8996	832.069	1.47
323.15 K, x2 = 0	983.234	2.006
323.15 K, x2 = 0.1013	974.275	1.892
323.15 K, x2 = 0.2236	961.962	1.777
323.15 K, x2 = 0.3036	952.794	1.698
323.15 K, x2 = 0.4131	938.437	1.592
323.15 K, x2 = 0.5065	924.136	1.515
323.15 K, x2 = 0.5996	907.495	1.432
323.15 K, x2 = 0.7007	885.946	1.362
323.15 K, x2 = 0.7991	860.406	1.325
323.15 K, x2 = 0.8996	827.911	1.334
328.15 K, x2 = 0	978.613	1.838
328.15 K, x2 = 0.1013	969.653	1.736
328.15 K, x2 = 0.2236	957.366	1.633
328.15 K, x2 = 0.3036	948.222	1.558
328.15 K, x2 = 0.4131	933.901	1.465
328.15 K, x2 = 0.5065	919.635	1.394
328.15 K, x2 = 0.5996	903.036	1.318
328.15 K, x2 = 0.7007	881.55	1.254
328.15 K, x2 = 0.7991	856.094	1.213
328.15 K, x2 = 0.8996	823.712	1.209
333.15 K, x2 = 0	973.989	1.691
333.15 K, x2 = 0.1013	965.036	1.612
333.15 K, x2 = 0.2236	952.77	1.516
333.15 K, x2 = 0.3036	943.642	1.448
333.15 K, x2 = 0.4131	929.347	1.359
333.15 K, x2 = 0.5065	915.11	1.289
333.15 K, x2 = 0.5996	898.551	1.223
333.15 K, x2 = 0.7007	877.126	1.161
333.15 K, x2 = 0.7991	851.747	1.119
333.15 K, x2 = 0.8996	819.469	1.104
